As usually defined, the pKi is the Ki on a negative log10 scale, so that one unit is a factor of ten. Read a low pKi as a high Ki. The term pIC50 denotes the negative decadic logarithm of the IC50, by convention in mol/L.

The values below come from PMC5461952 (Chemical research in toxicology, 2012).

pIC50, pKi: −log10 of the molar value. Entries after “also recorded” stand apart in the source; their conditions may differ. Read-outs that look alike come from different tables or passages of the source.

The target in data set [1] is T1, human P450 1A1 (Homo sapiens, UniProt P04798).
T1 sequence (P04798 1-512): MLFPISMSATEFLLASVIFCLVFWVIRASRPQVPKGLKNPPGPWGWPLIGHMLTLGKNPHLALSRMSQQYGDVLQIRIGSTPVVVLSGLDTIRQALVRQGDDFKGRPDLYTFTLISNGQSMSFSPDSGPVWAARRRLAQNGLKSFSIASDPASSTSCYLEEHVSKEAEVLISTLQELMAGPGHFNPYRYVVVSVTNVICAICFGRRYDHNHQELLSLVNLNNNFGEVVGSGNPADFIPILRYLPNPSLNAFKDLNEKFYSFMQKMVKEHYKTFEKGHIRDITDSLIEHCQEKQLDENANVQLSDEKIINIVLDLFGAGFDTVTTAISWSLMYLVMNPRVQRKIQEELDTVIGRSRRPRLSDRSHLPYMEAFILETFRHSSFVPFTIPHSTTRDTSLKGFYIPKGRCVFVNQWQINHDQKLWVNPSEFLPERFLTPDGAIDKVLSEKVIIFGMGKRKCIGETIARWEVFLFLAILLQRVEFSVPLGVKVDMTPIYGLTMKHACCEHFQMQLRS
The data set can be described thus: EROD. Type of data set: biochemical. To be noted: for IC50 P450 1A1: human P450 1A1 supersomes, EROD, 5 μM substrate, 37 °C, Dixon plot.

A further data set has as its target T2, CYP1A1 (Homo sapiens, UniProt P04798).
T2 sequence (P04798 1-512): T1 sequence (P04798 1-512)
Put plainly: Mechanism-based. The class given is biochemical. To be noted: human, human P450 1A1 supersomes, pH 7.6, probe 7-ethoxyresorufin (EROD).

Data set [2] has as its target T1, human P450 1A1. The data set can be described thus: Mechanism-based. Type of data set: biochemical.
Data set [3] has as its target T3, human P450 1A2 (Homo sapiens, UniProt P05177).
T3 sequence (P05177 1-516): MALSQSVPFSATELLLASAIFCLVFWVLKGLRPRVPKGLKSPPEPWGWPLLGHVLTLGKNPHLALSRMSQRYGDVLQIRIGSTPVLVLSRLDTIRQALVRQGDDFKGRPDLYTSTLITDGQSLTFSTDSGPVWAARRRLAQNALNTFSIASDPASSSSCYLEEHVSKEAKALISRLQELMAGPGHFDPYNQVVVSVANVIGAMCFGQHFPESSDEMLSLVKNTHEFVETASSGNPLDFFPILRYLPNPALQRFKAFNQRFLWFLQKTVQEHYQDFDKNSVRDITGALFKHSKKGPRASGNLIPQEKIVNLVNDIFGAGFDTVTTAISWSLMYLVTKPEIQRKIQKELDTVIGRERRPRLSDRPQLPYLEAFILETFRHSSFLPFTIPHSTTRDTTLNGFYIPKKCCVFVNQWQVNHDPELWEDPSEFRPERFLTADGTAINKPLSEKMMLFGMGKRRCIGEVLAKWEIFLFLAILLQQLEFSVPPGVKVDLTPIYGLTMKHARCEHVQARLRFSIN
Put plainly: Mechanism-based. Type of data set: biochemical.

Another data set has as its target T4, human P450 2A6 (Homo sapiens, UniProt P11509).
T4 sequence (P11509 1-494): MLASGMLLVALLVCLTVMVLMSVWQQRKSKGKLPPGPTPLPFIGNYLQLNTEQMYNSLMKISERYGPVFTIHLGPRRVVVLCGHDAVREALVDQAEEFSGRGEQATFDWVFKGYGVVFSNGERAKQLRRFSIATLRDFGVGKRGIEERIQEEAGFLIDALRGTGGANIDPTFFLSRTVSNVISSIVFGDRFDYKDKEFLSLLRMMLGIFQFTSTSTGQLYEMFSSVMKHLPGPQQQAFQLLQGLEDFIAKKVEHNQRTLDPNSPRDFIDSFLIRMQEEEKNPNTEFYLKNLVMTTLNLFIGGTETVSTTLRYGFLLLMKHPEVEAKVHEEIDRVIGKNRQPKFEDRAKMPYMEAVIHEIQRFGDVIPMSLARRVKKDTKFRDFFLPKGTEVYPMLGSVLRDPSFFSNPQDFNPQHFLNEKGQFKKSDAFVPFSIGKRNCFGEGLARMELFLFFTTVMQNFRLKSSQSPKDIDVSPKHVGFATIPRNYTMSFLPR
The data set can be described thus: Coumarin 7-hydroxylation inhibition assay in supersomes.

Another data set concerns the target T5, rat P4502B1 (Rattus norvegicus, UniProt P00176).
T5 sequence (P00176 1-491): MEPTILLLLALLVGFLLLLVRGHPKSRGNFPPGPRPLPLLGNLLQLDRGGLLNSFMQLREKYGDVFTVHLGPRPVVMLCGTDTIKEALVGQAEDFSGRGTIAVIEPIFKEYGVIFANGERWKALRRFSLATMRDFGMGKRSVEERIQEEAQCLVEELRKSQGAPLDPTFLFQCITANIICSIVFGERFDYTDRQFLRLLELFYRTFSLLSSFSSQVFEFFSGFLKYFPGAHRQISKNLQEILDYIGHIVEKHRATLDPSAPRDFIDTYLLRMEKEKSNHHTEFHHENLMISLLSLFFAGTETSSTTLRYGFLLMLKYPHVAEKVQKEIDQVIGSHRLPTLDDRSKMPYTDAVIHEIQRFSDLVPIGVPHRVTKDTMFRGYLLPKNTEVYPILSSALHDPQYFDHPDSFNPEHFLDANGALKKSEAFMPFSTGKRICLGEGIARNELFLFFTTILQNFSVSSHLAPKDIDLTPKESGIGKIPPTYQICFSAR
Put plainly: PROD.

The target in data set [4] is T3, human P450 1A2. Put plainly: MROD. The class given is biochemical.
Setting [5] is: 5 min preincubation in presence and absence of NADPH.

`Cc1cc(Cl)c2c(c1N)C(=O)c1ccccc1C2=O` [Compound 1, 1-Amino-4-chloro-2-methylanthracene-9,10-dione]: the “IC50 P450 1A1” value against human P450 1A1 [1] is “submicromolar potency”. The same molecule showed a KI (inactivation) at 6 min at CYP1A1 of 5.38 µM. Further, the “Mechanism-based inhibition of P450 1A1 (result in words)” value (“Mechanism-based inhibition of P450 1A1” below) at human P450 1A1 [2] (setting [5]) was “act as a mechanism-based inhibitor; also recorded: demonstrated mechanism-based inhibition”. Also, the kinact at human P450 1A1 [2] (read-out: Kinactivation (rate constant for maximal inactivation at saturation), P450 1A1) is 0.0262 s⁻¹; at human P450 1A2 [3] (read-out: Kinactivation, P450 1A2) it was 0.00133 s⁻¹. The molecule further had a pKi on human P450 1A2 [3] of 6.30. For the same molecule, the “Mechanism-based inhibition of P450 1A2 (result in words)” value (from here on “Mechanism-based inhibition of P450 1A2”) at human P450 1A2 [3] (setting [5]) is given as “act as a mechanism-based inhibitor; also recorded: demonstrated mechanism-based inhibition”. For the same molecule, the pIC50 on human P450 2A6 and on rat P4502B1 was < 4.30 throughout.

Take `Nc1ccc(O)c2c1C(=O)c1ccccc1C2=O` [Compound 2, 1-amino-4-hydroxyanthracene-9,10-dione]: the pIC50 against human P450 1A1 [1] was 5.68; against human P450 1A2 [4], 6.28; against human P450 2A6, < 4.30; at rat P4502B1 it was 5.67. Also, the “Mechanism-based inhibition of P450 1A1” value on human P450 1A1 [2] (setting [5]) is given as “did not show mechanism-based inhibition; also recorded: does not demonstrate mechanism-based inhibition”. Moreover, the “Mechanism-based inhibition of P450 1A2” value on human P450 1A2 [3] (setting [5]) is on record as “did not show mechanism-based inhibition; also recorded: does not demonstrate mechanism-based inhibition”.

Turning to `CC(C)(C)C1=CC(=O)c2c(ccc(C(C)(C)C)c2O)C1=O` [Compound 8, 2,6-Di-tert-butyl-5-hydroxynaphthalene-1,4-dione], the pIC50 was < 4.30 on human P450 1A1 [1], < 4.30 on human P450 1A2 [4], < 4.30 on human P450 2A6 and 5.25 at rat P4502B1. Also, the “IC50 P450 1A1” value against human P450 1A1 [1] is reported as “did not inhibit”. On human P450 1A2 [4] (human P450 1A2 supersomes, MROD, 5 μM substrate, 37 °C, Dixon plot), the “IC50 P450 1A2” value is listed as “did not inhibit”.

On to `Cc1cc(O)c2c(c1)C(=O)c1cc(O)cc(O)c1C2=O` [emodin, Emodin, reference compound], for which, at human P450 1A1 [2], the “Mechanism-based inhibition of P450 1A1” value is on record as “did not cause mechanism-based inhibition”. Also, the “Mechanism-based inhibition of P450 1A2” value on human P450 1A2 [3] was “did not cause mechanism-based inhibition”. Besides, the pIC50 on human P450 2A6 was < 4.30; on rat P4502B1 it was 4.83.
